Data taken from ChEMBL document CHEMBL1275241, “Novel variants of the qnrB gene, qnrB22 and qnrB23, in Citrobacter werkmanii and Citrobacter freundii” (2010).
Values after ≈ are worked out from the molar mass of the structure shown.

How the values were obtained:
Assay type in all cases: functional
Escherichia coli [1] = test: Antimicrobial activity against […] Escherichia coli DH5alpha by Etest
Escherichia coli [2] = test: Antimicrobial activity against azide-resistant Escherichia coli J53 TrcS008 harboring PMQR determinant qnrB23 by Etest
Escherichia coli [3] = test: Antimicrobial activity against azide-resistant Escherichia coli J53 TrcPS012 harboring PMQR determinant qnrB22 by Etest
Citrobacter werkmanii = test: Antimicrobial activity against Citrobacter werkmanii PS012 expressing PMQR determinant qnrB22 gene by Etest
Escherichia coli [4] = test: Antimicrobial activity against […] Escherichia coli DH5alpha TrfS008 harboring PMQR determinant qnrB23 by Etest
Citrobacter freundii = test: Antimicrobial activity against Citrobacter freundii S008 expressing PMQR determinant qnrB23 gene by Etest
Escherichia coli [5] = test: Antimicrobial activity against […] Escherichia coli DH5alpha TrfPS012 harboring PMQR determinant qnrB22 by Etest
Escherichia coli [6] = test: Antimicrobial activity against azide-resistant Escherichia coli J53 by Etest

Row | SMILES | MIC (Escherichia coli [1]) [µg/mL] | MIC (Escherichia coli [2]) [µg/mL] | MIC (Escherichia coli [3]) [µg/mL] | MIC (Citrobacter werkmanii) [µg/mL] | MIC (Escherichia coli [4]) [µg/mL] | MIC (Citrobacter freundii) [µg/mL] | MIC (Escherichia coli [5]) [µg/mL] | MIC (Escherichia coli [6]) [µg/mL]
1 | CCn1cc(C(=O)O)c(=O)c2ccc(C)nc21 [NALIDIXIC ACID] | 2 (≈ 8.61 µM) | > 256 | 16 (≈ 68.9 µM) | 32 (≈ 138 µM) | 16 (≈ 68.9 µM) | > 256 | 4 (≈ 17.2 µM) | 3 (≈ 12.9 µM)
2 | CC1COc2c(N3CCN(C)CC3)c(F)cc3c(=O)c(C(=O)O)cn1c23 (stereo not drawn) [OFLOXACIN] | 0.023 (≈ 0.0636 µM) | 8 (≈ 22.1 µM) |  | 1 (≈ 2.77 µM) | 0.25 (≈ 0.692 µM) | 8 (≈ 22.1 µM) | 0.064 (≈ 0.177 µM) | 0.064 (≈ 0.177 µM)
3 | CCn1cc(C(=O)O)c(=O)c2cc(F)c(N3CCNCC3)cc21 [NORFLOXACIN] | 0.032 (≈ 0.1 µM) | 8 (≈ 25.1 µM) | 0.25 (≈ 0.783 µM) | 0.5 (≈ 1.57 µM) | 0.25 (≈ 0.783 µM) | 8 (≈ 25.1 µM) | 0.064 (≈ 0.2 µM) | 0.064 (≈ 0.2 µM)
4 | O=C(O)c1cn(C2CC2)c2cc(N3CCNCC3)c(F)cc2c1=O [CIPROFLOXACIN] |  |  |  | 0.25 (≈ 0.754 µM) | 0.064 (≈ 0.193 µM) | 2 (≈ 6.04 µM) |  | 
5 | C[C@H]1COc2c(N3CCN(C)CC3)c(F)cc3c(=O)c(C(=O)O)cn1c23.C[C@H]1COc2c(N3CCN(C)CC3)c(F)cc3c(=O)c(C(=O)O)cn1c23.O [LEVOFLOXACIN] | < 0.002 | 3 |  | 0.5 | 0.094 | 3 | 0.004 | 0.023
